Assay results as given in US20190008795A1, “COMPOSITIONS FOR TOPICAL APPLICATION OF COMPOUNDS” (Illustris Pharmaceuticals, Inc., priority 2016, published 2019).

Assays:
[1] = Transdermal delivery of a macromolecule compound (summary); assay type: in vitro ADME; design: key: 0: on a scale using +symbols to reflect extent of the effect; −: on a scale using +symbols to reflect extent of the effect; +/−: on a scale using +symbols to reflect extent of the effect; on a scale using +symbols to reflect extent of the effect; ++: on a scale using +symbols to reflect extent of the effect; +++: on a scale using +symbols to reflect extent of the effect; ++++: on a scale using +symbols to reflect extent of the effect; +++++: on a scale using +symbols to reflect extent of the effect; conditions: peptide or protein, hyaluronic acid decoy
Source text: (§1) It will be appreciated that Examples 1-6, 11, 12 illustrate hyaluronic acid as a decoy molecule exemplary of the decoy molecules contemplated herein. As described above, decoy molecules of collagen and elastin are contemplated, where the molecular weight of the decoy molecule can be selected to tailor the delivery of the agent of interest across the skin. The table below summarizes the effect of the decoy molecule (using the hyaluronic acid as exemplary) on the transdermal delivery of a small molecule compound (e.g, one with a molecular weight of less than about 850 Da), on the transdermal delivery of a macromolecule compound (e.g, a peptide or a protein), on the extent of penetration of the decoy molecule into skin upon topical application, and on the enhancement of water content in skin by the decoy molecule, on a scale using +symbols to reflect extent of the effect.

[2] = Transdermal delivery of a small molecule compound (summary); assay type: in vitro ADME; design: key: 0: on a scale using +symbols to reflect extent of the effect; −: on a scale using +symbols to reflect extent of the effect; +/−: on a scale using +symbols to reflect extent of the effect; on a scale using +symbols to reflect extent of the effect; ++: on a scale using +symbols to reflect extent of the effect; +++: on a scale using +symbols to reflect extent of the effect; ++++: on a scale using +symbols to reflect extent of the effect; +++++: on a scale using +symbols to reflect extent of the effect; conditions: compound of less than about 850 Da, hyaluronic acid decoy
Source text: as §1

[3] = Penetration of the decoy molecule into skin upon topical application (summary); assay type: in vitro ADME; design: key: 0: on a scale using +symbols to reflect extent of the effect; −: on a scale using +symbols to reflect extent of the effect; +/−: on a scale using +symbols to reflect extent of the effect; on a scale using +symbols to reflect extent of the effect; ++: on a scale using +symbols to reflect extent of the effect; +++: on a scale using +symbols to reflect extent of the effect; ++++: on a scale using +symbols to reflect extent of the effect; +++++: on a scale using +symbols to reflect extent of the effect
Source text: as §1

[4] = Gabapentin delivery into porcine skin grafts, UPLC-mass spectrometer; assay type: in vitro ADME; conditions: 1% gabapentin in saline, 12-20 hours
Method: Delivery of gabapentin with hyaluronic acid into skin in vitro was measured using porcine skin grafts, and compared to delivery of gabapentin from a composition of gabapentin in saline (with no decoy molecule). Groups consisted of A) 1% gabapentin in saline (n=8 replicates), B) 1% gabapentin plus 1% sodium hyaluronate decoy of 3,000 Da in saline (n=8 replicates) or C) saline alone (n=8 replicates) in donor cells.
Briefly, tissues were incubated overnight in 0.5 mL of 50% acetonitrile in deionized water at 55° C. with agitation. Calibration standards and tissue extraction solvent samples were diluted 10× in deionized water before analysis. Diluted standards and samples were analyzed at 1 μL injection volumes. Concentrations were reported as μg/g of gabapentin in tissue.

[5] = 1 wt. % minocycline, 1% hyaluronic acid decoy or none, p=0.0004
Method: Delivery of minocycline into porcine skin in vitro was measured and compared to delivery of minocycline from a composition of minocycline in saline (i.e, with no decoy molecule). Compositions were prepared containing of 1 wt. % minocycline and 1% of decoy molecule of hyaluronic acid with three molecular weights: 10,000 Da mean, 20,000 Da mean, and 30,000 Da mean. A control formulation containing 1 wt % minocycline in saline was also prepared

[6] = listed as disaccharide (400 Da)

In the case of “hyaluronic acid [Hyaluronic Acid 5000 Da]”, the “Delivery of a Macromolecule Compound” value ([1]; listed as 5000 Da) is reported as “+”, the “Delivery of a Small Molecule Compound” value ([2]; listed as 5000 Da) is reported as “+” and the “Hyaluronic Acid Skin Penetration” value ([3]; listed as 5000 Da) is reported as “+++”.

With `NCC1(CC(=O)O)CCCCC1` [gabapentin alone, gabapentin] the gabapentin tissue levels [4] was 0.09 μg of gabapentin per gram of tissue.

With “hyaluronic acid [Hyaluronic Acid 20,000 Da]” the “Delivery of a Macromolecule Compound” value ([1]; listed as 20,000 Da) was “+++++”, the “Delivery of a Small Molecule Compound” value ([2]; listed as 20,000 Da) was “++++” and the “Hyaluronic Acid Skin Penetration” value ([3]; listed as 20,000 Da) was “++”.

In the case of “hyaluronic acid [Hyaluronic Acid degraded 5000 Da]”, the “Delivery of a Macromolecule Compound” value ([1]; listed as degraded 5000 Da) is reported as “−”, the “Delivery of a Small Molecule Compound” value ([2]; listed as degraded 5000 Da) is reported as “−” and the “Hyaluronic Acid Skin Penetration” value ([3]; listed as degraded 5000 Da) is reported as “++++”.

For “hyaluronic acid [Hyaluronic Acid 3000 Da]”, the “Delivery of a Macromolecule Compound” value ([1]; listed as 3000 Da) was “+”, the “Delivery of a Small Molecule Compound” value ([2]; listed as 3000 Da) was “+++” and the “Hyaluronic Acid Skin Penetration” value ([3]; listed as 3000 Da) was “++++”.

For “hyaluronic acid [Hyaluronic Acid disaccharide (400 Da)]”, the “Delivery of a Macromolecule Compound” value [1, 6] was 0, the “Delivery of a Small Molecule Compound” value [2, 6] was 0 and the “Hyaluronic Acid Skin Penetration” value [3, 6] was “+++++”.

In the case of “hyaluronic acid [Hyaluronic Acid 100,000 Da degraded]”, the “Delivery of a Macromolecule Compound” value ([1]; listed as 100,000 Da degraded) is reported as “+++”, the “Delivery of a Small Molecule Compound” value ([2]; listed as 100,000 Da degraded) is reported as “++++” and the “Hyaluronic Acid Skin Penetration” value ([3]; listed as 100,000 Da degraded) is reported as “+++”.

In the case of “hyaluronic acid [Hyaluronic Acid 10,000 Da]”, the “Delivery of a Macromolecule Compound” value ([1]; listed as 10,000 Da) is reported as “++”, the “Delivery of a Small Molecule Compound” value ([2]; listed as 10,000 Da) is reported as “+++” and the “Hyaluronic Acid Skin Penetration” value ([3]; listed as 10,000 Da) is reported as “++”.

In the case of `CN(C)c1ccc(O)c2c1C[C@H]1C[C@H]3[C@H](N(C)C)C(O)=C(C(N)=O)C(=O)[C@@]3(O)C(O)=C1C2=O` [minocycline], the “penetration of minocycline into porcine skin” value [5] is reported as “low native penetration”.

In the case of “hyaluronic acid [Hyaluronic Acid 100,000 Da]”, the “Delivery of a Macromolecule Compound” value ([1]; listed as 100,000 Da) is reported as 0, the “Delivery of a Small Molecule Compound” value ([2]; listed as 100,000 Da) is reported as 0 and the “Hyaluronic Acid Skin Penetration” value ([3]; listed as 100,000 Da) is reported as “+/−”.
